Like-named read-outs stand apart in the source and are kept apart here.
Target: human Arginine Vasopressin Receptor 1a (AVPR1a) (Homo sapiens (Human), UniProt P37288)
Test: Vasopressin V1A receptor antagonist assay (AVP-evoked calcium, FLIPR, CHO-AVPR1a cells)
Assay type: cell-based
Experimental: The purpose of this assay was to determine the inhibitory effect of synthesized compounds on the Vasopressin V1a receptor. The assay as performed in Chinese Hamster Ovary (CHO) cells expressing the human Arginine Vasopressin Receptor 1a (AVPR1a). Arginine Vasopressin (AVP) evokes an increase in intracellular calcium in CHO-AVPR1a cells which is measured in a fluorescence assay on the FLIPR^TETRA using calcium sensitive dyes. Test compounds were assessed for their ability to affect the magnitude of the response to AVP, with antagonists showing a concentration-dependent reduction in the AVP-mediated fluorescence. Compounds were tested in duplicate in a 10-point, 1:3 dilution series starting at a nominal concentration of 3 μM in the assay.
CHO-AVPR1a cells were maintained in routine culture in T175 Flasks at 37° C., 5% CO2. The growth medium consists of Ham's F12 media supplemented with 10% v/v fetal bovine serum, 1× non-essential amino acids, and 0.4 mg/ml Geneticin G418.
On day one, cells were harvested from T175 flasks when they are 80-90% confluent by first washing the cell monolayer with PBS and then dissociated using trypsin 0.05%/EDTA (3 mL for a T175 Flask). The flasks were incubated at room temperature until the cells detached. To the cell suspension, 10 ml of growth media was added and the cell density determined using the Vi-Cell automated cell counter. The cells were spun at 1000 rpm for 3 minutes, then the supernatant was carefully removed and discarded. The cell pellet was re-suspended at 6.0e^5 cells/ml in growth media. 25 μL of cells in growth media was dispensed into each well (15,000 cells per well) of a poly-D-lysine coated black, clear bottomed, 384-well plate. The plates were incubated at 37° C., 5% CO2 overnight.
At the start of each assay day, the potency of AVP was assessed and an EC80 concentration determined for subsequent compound profiling. Assays were performed using a two-step addition protocol on the FLIPR^TETRA; first addition of 5 μl of control or test compound at 10× final in assay buffer with 15 min incubation at 37° C., 5% CO2 followed by 10 μl of AVP at 6× final concentration in assay buffer. […] The assay buffer consisted of HBSS (+Ca/+Mg) supplemented with 20 mM HEPES, and for the preparation of the AVP agonist only, 0.1% w/v bovine serum albumin. The assay was initiated by the removal of growth media from the cells and replacement with 45 μl of Calcium-6 dye (Molecular Devices) prepared at 1× in assay buffer. Cells are loaded with dye for 60-90 min at 37° C., 5% CO2 before initiation of the FLIPR^TETRA protocol. […] At the end of the incubation period, 10 μl of AVP in assay buffer containing 0.1% BSA was added at the previously determined EC80 concentration.

Chain of human Arginine Vasopressin Receptor 1a (AVPR1a) (P37288 whole entry): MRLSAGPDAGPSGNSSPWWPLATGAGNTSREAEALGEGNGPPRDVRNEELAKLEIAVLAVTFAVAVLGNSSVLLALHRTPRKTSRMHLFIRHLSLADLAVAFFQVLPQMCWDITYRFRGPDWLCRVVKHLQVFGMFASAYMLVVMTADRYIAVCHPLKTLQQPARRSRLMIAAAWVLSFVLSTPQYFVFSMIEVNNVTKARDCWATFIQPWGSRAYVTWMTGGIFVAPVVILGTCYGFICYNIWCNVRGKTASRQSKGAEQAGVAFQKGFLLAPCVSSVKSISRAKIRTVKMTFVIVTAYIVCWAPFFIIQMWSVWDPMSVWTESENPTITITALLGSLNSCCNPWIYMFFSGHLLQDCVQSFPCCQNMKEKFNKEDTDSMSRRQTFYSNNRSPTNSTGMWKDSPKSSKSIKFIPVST

Structure (SMILES): CC1(N2Cc3cc(Cl)ccc3-n3c(nnc3C3CC4(C3)CN(c3ncccn3)C4)C2)CC1 [compound 264]
- IC50 (read-out: V1a IC50): < 100 nM

Structure (SMILES): Clc1ccc2c(c1)CN(C1CC1)Cc1nnc(C3CC4(C3)CN(c3cnccn3)C4)n1-2 [compound 219]
- IC50 (read-out: V1a IC50): < 100 nM

Structure (SMILES): CN1Cc2cc(Cl)ccc2-n2c(nnc2C2CC3(C2)CN(C(=O)N2CCOCC2)C3)C1 [compound 25]
- IC50 (read-out: V1a IC50): > 1000 nM

Structure (SMILES): CCOC(=O)N1Cc2cc(Cl)ccc2-n2c(C3CC4(C3)CN(c3ncccn3)C4)nnc2C1C (single isomer, unassigned) [Cpd 168B]
- IC50 (read-out: V1a IC50): 100 to 500 nM

Structure (SMILES): Clc1ccc2c(c1)CN(C1CC1)Cc1nnc(C3CC4(C3)CN(c3noc(C5CC5)n3)C4)n1-2 [compound 269]
- IC50: 500 to 1000 nM

Structure (SMILES): Cc1ccc(N2CC3(CC(c4nnc5n4-c4ccc(Cl)cc4CN(C4CC4)C5)C3)C2)nc1 [compound 227]
- IC50 (read-out: V1a IC50): < 100 nM

Structure (SMILES): CC1c2nnc(C3CC4(C3)CN(c3ccc(F)cn3)C4)n2-c2ccc(Cl)cc2CN1C(=O)C(C)(C)F (single isomer, unassigned) [Cpd 178B]
- IC50 (read-out: V1a IC50): 100 to 500 nM

Structure (SMILES): CC(C)(C)OC(=O)N1Cc2cc(Cl)ccc2-n2c(nnc2C2CC3(C2)CN(c2ccccn2)C3)C1 [compound 62]
- IC50 (read-out: V1a IC50): < 100 nM

Structure (SMILES): CN1Cc2cc(Cl)ccc2-c2c(C3CC4(C3)CN(c3ccc(F)cn3)C4)noc2C1 [compound 97, 8-chloro-1-(2-(5-fluoropyridin-2-yl)-2-azaspiro[3.3]heptan-6-yl)-5-methyl-5,6-dihydro-4H-benzo[c]isoxazolo[4,5-e]azepine]
- IC50 (read-out: V1a IC50): < 100 nM

Structure (SMILES): Cc1ccc(N2CC3(CC(c4nnc5n4-c4ccc(Cl)cc4CN(C4(C)CC4)C5)C3)C2)nc1 [compound 265]
- IC50: 100 to 500 nM

Structure (SMILES): CN1Cc2cc(Cl)ccc2-n2c(nnc2C2CC3(C2)CN(S(C)(=O)=O)C3)C1 [compound 34, 8-chloro-5-methyl-1-(2-(methylsulfonyl)-2-azaspiro[3.3]heptan-6-yl)-5,6-dihydro-4H-benzo[f][1,2,4]triazolo[4,3-a][1,4]diazepine]
- IC50: 500 to 1000 nM

Structure (SMILES): Fc1ccc(N2CC3(CC(c4nnc5n4-c4ccc(Cl)cc4CNC5)C3)C2)nc1 [compound 60, 8-chloro-1-(2-(5-fluoropyridin-2-yl)-2-azaspiro[3.3]heptan-6-yl)-5,6-dihydro-4H-benzo[f][1,2,4]triazolo[4,3-a][1,4]diazepine]
- IC50: 100 to 500 nM

Structure (SMILES): Cc1nc(N2CC3(CC(c4nnc5n4-c4ccc(Cl)cc4CN(C)C5)C3)C2)no1 [compound 266, 3-(6-(8-chloro-5-methyl-5,6-dihydro-4H-benzo[f][1,2,4]triazolo[4,3-a][1,4]diazepin-1-yl)-2-azaspiro[3.3]heptan-2-yl)-5-methyl-1,2,4-oxadiazole]
- IC50: 500 to 1000 nM

Structure (SMILES): CC(C)C(=O)N1CC2(CC(c3nnc4n3-c3ccc(Cl)cc3CN(C)C4)C2)C1 [compound 30]
- IC50: 100 to 500 nM

Structure (SMILES): CCOC(=O)N1Cc2cc(Cl)ccc2-n2c(C3CC4(C3)CN(c3ncc(F)cn3)C4)nnc2C1C (single isomer, unassigned) [Cpd 172B]
- IC50 (read-out: V1a IC50): > 1000 nM

Structure (SMILES): CN1Cc2cc(Cl)ccc2-n2c(nnc2C2CC3(C2)CN(c2ccncn2)C3)C1 [compound 243]
- IC50: 100 to 500 nM

Structure (SMILES): Cc1nc(N2CC3(CC(c4nnc5n4-c4ccc(Cl)cc4CN(C4(C)CC4)C5)C3)C2)ccc1F [compound 260]
- IC50 (read-out: V1a IC50): < 100 nM

Structure (SMILES): COCCN1Cc2cc(Cl)ccc2-n2c(nnc2C2CC3(C2)CN(c2ccc(F)cn2)C3)C1 [compound 44]
- IC50 (read-out: V1a IC50): < 100 nM

Structure (SMILES): CC(C)OC(=O)N1Cc2cc(Cl)ccc2-n2c(C3CC4(C3)CN(c3ccncn3)C4)nnc2C1C (single isomer, unassigned) [Cpd 187A]
- IC50 (read-out: V1a IC50): < 100 nM

Structure (SMILES): Cc1nc(N2CC3(CC(c4nnc5n4-c4ccc(Cl)cc4CN(C)C5)C3)C2)ncc1F [compound 240]
- IC50 (read-out: V1a IC50): < 100 nM

Structure (SMILES): Cc1ccnc(N2CC3(CC(c4nnc5n4-c4ccc(Cl)cc4CN(C4CC4)C5)C3)C2)c1 [compound 217, 8-chloro-5-cyclopropyl-1-(2-(4-methylpyridin-2-yl)-2-azaspiro[3.3]heptan-6-yl)-5,6-dihydro-4H-benzo[f][1,2,4]triazolo[4,3-a][1,4]diazepine]
- IC50 (read-out: V1a IC50): < 100 nM

Structure (SMILES): Cc1nccnc1N1CC2(CC(c3nnc4n3-c3ccc(Cl)cc3CN(C3CC3)C4)C2)C1 [compound 222]
- IC50 (read-out: V1a IC50): < 100 nM

Structure (SMILES): Cc1nccnc1N1CC2(CC(c3nnc4n3-c3ccc(Cl)cc3CN(C3(C)CC3)C4)C2)C1 [compound 244]
- IC50 (read-out: V1a IC50): < 100 nM

Structure (SMILES): COCCN1Cc2cc(Cl)ccc2-n2c(nnc2C2CC3(C2)CN(c2ncccc2F)C3)C1 [compound 53]
- IC50 (read-out: V1a IC50): < 100 nM

Structure (SMILES): CC1(N2Cc3cc(Cl)ccc3-n3c(nnc3C3CC4(C3)CN(c3cccc(C#N)n3)C4)C2)CC1 [compound 262]
- IC50 (read-out: V1a IC50): < 100 nM

Structure (SMILES): CN1Cc2cc(Cl)ccc2-n2c(nnc2C2CC3(C2)CN(C(=O)c2ccccn2)C3)C1 [compound 24]
- IC50 (read-out: V1a IC50): > 1000 nM

Structure (SMILES): Cc1nc(N2CC3(CC(c4nnc5n4-c4ccc(Cl)cc4CN(C4CC4)C5)C3)C2)no1 [compound 268, 3-(6-(8-chloro-5-cyclopropyl-5,6-dihydro-4H-benzo[f][1,2,4]triazolo[4,3-a][1,4]diazepin-1-yl)-2-azaspiro[3.3]heptan-2-yl)-5-methyl-1,2,4-oxadiazole]
- IC50: 100 to 500 nM

Structure (SMILES): CCOC(=O)N1Cc2cc(Cl)ccc2-n2c(C3CC4(C3)CN(c3ccc(F)cn3)C4)nnc2C1C (single isomer, unassigned) [Cpd 169B]
- IC50 (read-out: V1a IC50): 100 to 500 nM

Structure (SMILES): CC1(N2Cc3cc(Cl)ccc3-n3c(nnc3C3CC4(C3)CN(c3ccncn3)C4)C2)CC1 [compound 254]
- IC50: 100 to 500 nM

Structure (SMILES): Cc1cnc(N2CC3(CC(c4nnc5n4-c4ccc(Cl)cc4CN(C4CC4)C5)C3)C2)nc1 [compound 234]
- IC50: 100 to 500 nM

Structure (SMILES): Cc1cc(N2CC3(CC(c4nnc5n4-c4ccc(Cl)cc4CN(C4(C)CC4)C5)C3)C2)ncc1F [compound 245]
- IC50 (read-out: V1a IC50): < 100 nM

Structure (SMILES): CC1c2nnc(C3CC4(C3)CN(c3ccc(F)cn3)C4)n2-c2ccc(Cl)cc2CN1C(=O)OC1CC1 (single isomer, unassigned) [Cpd 191B]
- IC50 (read-out: V1a IC50): > 1000 nM

Structure (SMILES): CN1Cc2cc(Cl)ccc2-n2c(nnc2C2CC3(C2)CN(c2ncccn2)C3)C1 [compound 38]
- IC50 (read-out: V1a IC50): < 100 nM

Structure (SMILES): COc1ccc(C)nc1N1CC2(CC(c3nnc4n3-c3ccc(Cl)cc3CN(C3CC3)C4)C2)C1 [compound 274]
- IC50 (read-out: V1a IC50): < 100 nM

Structure (SMILES): O=C1OCC2c3nnc(C4CC5(C4)CN(c4ncccn4)C5)n3-c3ccc(Cl)cc3CN12 (centres unmarked) [compound 198]
- IC50: 100 to 500 nM

Structure (SMILES): CN1Cc2cc(Cl)ccc2-n2c(nnc2C2CC3(C2)CN(c2noc(C4CC4)n2)C3)C1 [compound 267]
- IC50 (read-out: V1a IC50): > 1000 nM

Structure (SMILES): CN1Cc2cc(Cl)ccc2-n2c(nnc2C2CC3(C2)CN(c2ncc(F)cn2)C3)C1 [compound 236, 8-chloro-5-methyl-1-(2-(5-fluoropyrimidin-2-yl)-2-azaspiro[3.3]heptan-6-yl)-5,6-dihydro-4H-benzo[f][1,2,4]triazolo[4,3-a][1,4]diazepine]
- IC50 (read-out: V1a IC50): < 100 nM

Structure (SMILES): Cc1cc(N2CC3(CC(c4nnc5n4-c4ccc(Cl)cc4CN(C4CC4)C5)C3)C2)ncc1F [compound 235]
- IC50 (read-out: V1a IC50): < 100 nM

Structure (SMILES): CN1Cc2cc(Cl)ccc2-n2c(nnc2C2CC3(C2)CN(C(=O)C2CCC2)C3)C1 [compound 35]
- IC50: 100 to 500 nM

Structure (SMILES): N#Cc1ccnc(N2CC3(CC(c4nnc5n4-c4ccc(Cl)cc4CN(C4CC4)C5)C3)C2)n1 [compound 248]
- IC50 (read-out: V1a IC50): < 100 nM

Structure (SMILES): COC(=O)N1Cc2cc(Cl)ccc2-n2c(C3CC4(C3)CN(c3ncncc3F)C4)nnc2C1C (single isomer, unassigned) [Cpd 188B]
- IC50 (read-out: V1a IC50): > 1000 nM
